Test results as given in PubChem BioAssay AID248 (DTP/NCI, 2004).
Inconclusive results and toxic doses are left out. Cut-off read from the data, not from the text of the source: active = T/C of 150% or more; inactive = T/C below 125%.

Tested on: L1210 leukemia ip in BDF1 mice, survival T/C
Test: NCI In Vivo Anticancer Drug Screen. Data for tumor model L1210 Leukemia (intraperitoneal) in B6D2F1 (BDF1) mice
Settings: endpoint: mean survival time, higher = longer survival
How it was run: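 Ratio derived from survival: compound-dosed mice over vehicle-dosed mice, all bearing a transplantable tumor.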

[1] = dose: 50.0 mg/kg/injection, schedule: Q01DX001 (ip), vehicle: saline
[2] = dose: 100.0 mg/kg/injection, schedule: Q01DX009 (ip), vehicle: saline with Tween-80
[3] = dose: 200.0 mg/kg/injection, schedule: Q01DX009 (ip), vehicle: saline with Tween-80
[4] = dose: 400.0 mg/kg/injection, schedule: Q01DX009 (ip), vehicle: saline with Tween-80
[5] = dose: 100.0 mg/kg/injection, schedule: Q01DX001 (ip), vehicle: saline
[6] = dose: 200.0 mg/kg/injection, schedule: Q01DX001 (ip), vehicle: saline
[7] = dose: 400.0 mg/kg/injection, schedule: Q01DX001 (ip), vehicle: saline
[8] = dose: 100.0 mg/kg/injection, schedule: Q04DX003 (ip), vehicle: saline with Tween-80
[9] = dose: 200.0 mg/kg/injection, schedule: Q04DX003 (ip), vehicle: saline with Tween-80
[10] = dose: 100.0 mg/kg/injection, schedule: Q04DX003 (ip), vehicle: saline

Measured: T/C

C1=CC2CC1CC2[P+](c1ccccc1)(c1ccccc1)c1ccccc1 (stereo not given)
inactive: dose: 12.5 mg/kg/injection, schedule: Q01DX001 (ip), vehicle: saline 117 % of control | dose: 25.0 mg/kg/injection, schedule: Q01DX001 (ip), vehicle: saline 98 % of control | [1] 95 % of control

O=C(Nc1ccccc1C(F)(F)F)c1ccccc1Cl
inactive: dose: 100.0 mg/kg/injection, schedule: Q01DX009 (ip), vehicle: acetone 98 % of control | dose: 200.0 mg/kg/injection, schedule: Q01DX009 (ip), vehicle: acetone 93 % of control | dose: 400.0 mg/kg/injection, schedule: Q01DX009 (ip), vehicle: acetone 93 % of control

COc1ccc(C(C)=O)c(O)c1C
inactive: [2] 111 % of control | [3] 94 % of control | [4] 92 % of control

CCN(CC)CCOc1ccc(N)cc1
inactive: [5] 94 % of control | [6] 94 % of control | [7] 100 % of control

O=[N+]([O-])c1ccc2cnn(CSP(=S)(c3ccccc3)c3ccccc3)c2c1
inactive: dose: 100.0 mg/kg/injection, schedule: Q01DX001 (ip), vehicle: other 93 % of control | dose: 200.0 mg/kg/injection, schedule: Q01DX001 (ip), vehicle: other 101 % of control | dose: 400.0 mg/kg/injection, schedule: Q01DX001 (ip), vehicle: other 101 % of control

COCCNP(=S)(OC)OC
inactive: [2] 93 % of control | [8] 101 % of control | [3] 95 % of control | [9] 106 % of control | [4] 101 % of control | dose: 400.0 mg/kg/injection, schedule: Q04DX003 (ip), vehicle: saline with Tween-80 92 % of control

CCC(C1CCC(O)CC1)C(CC)C1CCC(c2ccc(=O)oc2)C1 (stereo not given)
inactive: dose: 25.0 mg/kg/injection, schedule: Q04DX003 (ip), vehicle: saline 100 % of control | dose: 50.0 mg/kg/injection, schedule: Q04DX003 (ip), vehicle: saline 103 % of control | [10] 103 % of control

C[N+](C)(C)CCOC(=O)C1C2CC3OC(=O)C1C3C2 (stereo not given)
inactive: [10] 98 % of control | dose: 200.0 mg/kg/injection, schedule: Q04DX003 (ip), vehicle: saline 102 % of control | dose: 400.0 mg/kg/injection, schedule: Q04DX003 (ip), vehicle: saline 96 % of control

O=C(NCCN1CCCCC1)C(O)(c1ccccc1)C1CCCCC1 (stereo not given)
inactive: dose: 75.0 mg/kg/injection, schedule: Q01DX001 (ip), vehicle: other 97 % of control | dose: 150.0 mg/kg/injection, schedule: Q01DX001 (ip), vehicle: other 100 % of control

O=C(Nc1cccc(S(=O)(=O)F)c1)c1ccc([N+](=O)[O-])cc1
inactive: [5] 107 % of control | [6] 103 % of control | [7] 90 % of control

NCCSSCCN
inactive: dose: 24.0 mg/kg/injection, schedule: Q04DX002 (ip), vehicle: saline with Tween-80 98 % of control | dose: 60.0 mg/kg/injection, schedule: Q04DX002 (ip), vehicle: saline with Tween-80 95 % of control | dose: 100.0 mg/kg/injection, schedule: Q04DX002 (ip), vehicle: saline 93 % of control | dose: 150.0 mg/kg/injection, schedule: Q04DX002 (ip), vehicle: saline with Tween-80 91 % of control | dose: 200.0 mg/kg/injection, schedule: Q04DX002 (ip), vehicle: saline 107 % of control

O=C1/C(=C\c2ccc(O)cc2)Oc2cc(O)ccc21
inactive: dose: 100.0 mg/kg/injection, schedule: Q01DX001 (ip), vehicle: saline with Tween-80 98 % of control | dose: 200.0 mg/kg/injection, schedule: Q01DX001 (ip), vehicle: saline with Tween-80 87 % of control | dose: 400.0 mg/kg/injection, schedule: Q01DX001 (ip), vehicle: saline with Tween-80 90 % of control

c1ccc2c(c1)OCCOCCOCCOCCO2
inactive: dose: 6.25 mg/kg/injection, schedule: Q04DX002 (ip), vehicle: saline 89 % of control | dose: 12.5 mg/kg/injection, schedule: Q04DX002 (ip), vehicle: saline 103 % of control | dose: 25.0 mg/kg/injection, schedule: Q04DX002 (ip), vehicle: saline 113 % of control | dose: 50.0 mg/kg/injection, schedule: Q04DX002 (ip), vehicle: saline 94 % of control

COc1cc(C=NCCN=Cc2cc(OC)c(OC)c(OC)c2)cc(OC)c1OC
inactive: dose: 50.0 mg/kg/injection, schedule: Q01DX009 (ip), vehicle: saline with Tween-80 94 % of control | dose: 50.0 mg/kg/injection, schedule: Q04DX003 (ip), vehicle: saline with Tween-80 94 % of control | [2] 100 % of control | [8] 98 % of control | [9] 105 % of control

COc1ccc([N+](=O)[O-])cc1C(=O)O
inactive: dose: 75.0 mg/kg/injection, schedule: Q01DX001 (ip), vehicle: saline 104 % of control | dose: 75.0 mg/kg/injection, schedule: Q04DX003 (ip), vehicle: acetone 100 % of control | dose: 150.0 mg/kg/injection, schedule: Q01DX001 (ip), vehicle: saline 95 % of control | dose: 150.0 mg/kg/injection, schedule: Q04DX003 (ip), vehicle: acetone 89 % of control | dose: 300.0 mg/kg/injection, schedule: Q01DX001 (ip), vehicle: saline 104 % of control | dose: 300.0 mg/kg/injection, schedule: Q04DX003 (ip), vehicle: acetone 93 % of control

CC(=O)Oc1ccc(OC(C)=O)c2c1C(=O)C=CC2=O
inactive: dose: 0.78 mg/kg/injection, schedule: Q04DX002 (ip), vehicle: alcohol 110 % of control | dose: 1.56 mg/kg/injection, schedule: Q04DX002 (ip), vehicle: alcohol 100 % of control | dose: 3.12 mg/kg/injection, schedule: Q04DX002 (ip), vehicle: alcohol 106 % of control | dose: 6.25 mg/kg/injection, schedule: Q04DX002 (ip), vehicle: alcohol 93 % of control | [5] 107 % of control

CC(C)(C)C1=CC(=O)C=CC1=O
inactive: dose: 50.0 mg/kg/injection, schedule: Q01DX009 (ip), vehicle: water 93 % of control | dose: 100.0 mg/kg/injection, schedule: Q01DX001 (ip), vehicle: water 100 % of control | dose: 100.0 mg/kg/injection, schedule: Q01DX009 (ip), vehicle: water 97 % of control | dose: 200.0 mg/kg/injection, schedule: Q01DX001 (ip), vehicle: water 102 % of control

COC1=C(NC(C)c2ccccc2)C(=O)C(OC)=C(NC(C)c2ccccc2)C1=O (stereo not given)
inactive: dose: 50.0 mg/kg/injection, schedule: Q01DX001 (ip), vehicle: carboxymethylcellulose (CMC) 96 % of control | dose: 200.0 mg/kg/injection, schedule: Q01DX001 (ip), vehicle: carboxymethylcellulose (CMC) 89 % of control

O=[N+]([O-])c1cccn2nc(-c3ccccc3)nc12
inactive: dose: 100.0 mg/kg/injection, schedule: Q01DX001 (ip), vehicle: acetone 98 % of control | dose: 200.0 mg/kg/injection, schedule: Q01DX001 (ip), vehicle: acetone 98 % of control | dose: 400.0 mg/kg/injection, schedule: Q01DX001 (ip), vehicle: acetone 101 % of control

CCOC(=O)C[N+]1(C)C2CCC1CC(O)C2 (stereo not given)
inactive: [5] 94 % of control | [6] 90 % of control | [7] 94 % of control

Nc1ccc([I+]c2ccccc2)cc1
inactive: [1] 101 % of control | [5] 103 % of control

CC(C)=CCCC1(C)C=Cc2c(c(C)cc3c2[nH]c2ccccc23)O1 (stereo not given)
inactive: dose: 25.0 mg/kg/injection, schedule: Q04DX002 (ip), vehicle: gum acacia 96 % of control | dose: 50.0 mg/kg/injection, schedule: Q04DX002 (ip), vehicle: gum acacia 89 % of control | dose: 100.0 mg/kg/injection, schedule: Q04DX002 (ip), vehicle: gum acacia 99 % of control

C=CCSc1ccccc1C
inactive: [5] 95 % of control | [6] 95 % of control

Nc1ccc2c3c(cccc13)C(=O)OC2=O
inactive: dose: 100.0 mg/kg/injection, schedule: Q01DX001 (ip), vehicle: Klucel (hydroxypropylcellulose) (HPC) 91 % of control | dose: 100.0 mg/kg/injection, schedule: Q01DX009 (ip), vehicle: saline 92 % of control | dose: 200.0 mg/kg/injection, schedule: Q01DX001 (ip), vehicle: Klucel (hydroxypropylcellulose) (HPC) 94 % of control | dose: 200.0 mg/kg/injection, schedule: Q01DX009 (ip), vehicle: saline 95 % of control | dose: 400.0 mg/kg/injection, schedule: Q01DX001 (ip), vehicle: Klucel (hydroxypropylcellulose) (HPC) 94 % of control | dose: 400.0 mg/kg/injection, schedule: Q01DX009 (ip), vehicle: saline 90 % of control
